According to patent US20240400579A1, “SPIROCYCLIC MODULATORS OF CHOLESTEROL BIOSYNTHESIS AND THEIR USE FOR PROMOTING REMYELINATION” (GENENTECH, INC., priority 2021, published 2024):
Read-outs that look alike come from different tables or passages of the source.

Tests used:
[1] = tested on: EpiSC-derived OPCs; assay: In vitro phenotypic screening of OPCs, MBP high-content imaging; assay type: cell-based, mouse; conditions: percentage of MBP+ oligodendrocytes, 3 days, 0.5 nM to 1000 nM, read-out: mOPC EC50
Experimental: (§1) To assess effects of treatments on OPCs, all treatments were assayed in two or more independent platings of epiblast stem cell-derived OPCs (EpiSC). EpiSC-derived OPCs were obtained using in vitro differentiation protocols and culture conditions described previously (Najm et al, 2011, Nature Methods). OPCs were expanded and frozen down in aliquots. OPCs were thawed into growth conditions for at least one passage before use in further assays.
EpiSC-derived OPCs were grown and expanded in poly-L-ornithine (PO) and laminin-coated flasks in N2B27 media (DMEM/F12 (Gibco), N2-MAX (R&D Systems), B-27 (ThermoFisher), and GlutaMax (Gibco)) supplemented with FGF2 ([…], R&D systems, 233-FB-025) and PDGF-AA ([…], R&D systems, 233-AA-050) before harvesting for experiments. The cells were seeded onto poly-L-ornithine or poly-D-lysine coated CellCarrier Ultra plates (PerkinElmer) coated with laminin (Sigma, L2020) at a density of 150,000/cm^2 in N2B27 media without growth factors. For dose-response testing, a 1000× compound stock in dimethyl sulphoxide (DMSO) was added to assay plates, resulting in 8-point dose curves with final concentrations between 1000 nM and 0.5 nM. Positive controls and DMSO vehicle controls were included in each assay plate. Cells were incubated under standard conditions (37° C., 5% CO2) for 3 days and fixed with 4% paraformaldehyde (PFA) in phosphate buffered saline (PBS) for 20 min. Fixed plates were washed with PBS, permeabilized with 0.1% Triton X-100, and blocked with 10% donkey serum (v/v) in PBS for 40 min. Then, cells were labelled with MBP antibodies (Abcam, ab7349; 1:200) for 2 h at room temperature, washed with PBS, and stained with Alexa Fluor conjugated secondary antibodies (1:500) for 45 min. Nuclei were visualized by DAPI staining (Sigma; 1 μg/ml), followed by further PBS washes.
Cells and cell culture plates were imaged on the Operetta High Content Imaging and Analysis system (PerkinElmer). Analysis (PerkinElmer Harmony and Columbus software) began by identifying intact nuclei stained by DAPI. The peri-nuclear region of each cell was then cross-referenced with the mature myelin protein (MBP) stain to identify oligodendrocyte nuclei, and from this the percentage of oligodendrocytes was calculated. EC50 values were calculated using The Levenberg-Marquardt algorithm to fit a Hill equation to dose-response data (0.5 nM to 1000 nM).

[2] = molecular target: human emopamil binding protein and human 7-dehydrocholesterol reductase co-expressing cell membrane (Homo sapiens (Human), UniProt Q15125); assay: hEBP-DHCR7 radioligand filtration binding assay with [3H]-Compound 118A*; conditions: radioligand [3H]-Compound 118A*; HEK293 membrane co-expressing hEBP and DHCR7
Chain of human emopamil binding protein and human 7-dehydrocholesterol reductase co-expressing cell membrane (Q15125 whole entry): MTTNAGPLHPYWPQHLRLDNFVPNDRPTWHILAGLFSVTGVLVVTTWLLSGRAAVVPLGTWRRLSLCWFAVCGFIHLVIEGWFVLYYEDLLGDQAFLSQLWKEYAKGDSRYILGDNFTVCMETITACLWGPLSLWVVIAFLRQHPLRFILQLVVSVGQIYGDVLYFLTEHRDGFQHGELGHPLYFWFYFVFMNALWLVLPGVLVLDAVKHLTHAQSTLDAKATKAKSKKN
Experimental: Membrane Preparation: human emopamil binding protein and human 7-dehydrocholesterol reductase co-expressing cells were generated by transient transfecting host human embryonic kidney (HEK) 293 cells with 2 DNA constructs containing each protein's coding sequence. Cells were suspension cultured at 37° C. with 5% CO2 in […] 293 Expression Medium (Thermofisher). Whole cell membrane was prepared by harvesting the cell pellet, adding cold membrane buffer (50 mM Tris, pH7.5, 1× Roche COMPLETE EDTA-free protease inhibitor cocktail) 10 times volume of the cell pellets weight, lysing cell pellet on ice by using Dounce homogenizer, spinning at 200 g 4° C. for 15 min, collecting supernatant and spinning again at 25000 g 4° C. for 50 min, transferring pellet to Dounce homogenizer, re-suspending pellet by homogenizing in membrane buffer on ice to reach ˜25 mg/mL, then keeping whole cell membrane aliquots at −80° C.
Compounds were prepared in a 96-well U bottom plate using an Echo550 machine and 10 mM compound DMSO stock solution, followed by an 8-dose 5-fold serial dilutions protocol with final testing compound concentration ranging from 0.06 to 5000 nM, with DMSO back fill to 100 nL/well and n=2. […] The UniFilter-96 GF/B plates were pre-treated by adding 50 μl/well of 0.3% (v/v) PEI to UniFilter-96 GF/B plates. The plates were sealed and incubated at 4° C. for 3 hrs. Then, the plates were washed with ice-cold assay buffer 3 times. The radioligand binding assay was prepared by adding assay buffer diluted hEBP-DHCR7 membrane at 66.7 μg/ml x 150 μl/well into the 96-well compound plate to reach 10 μg membrane per well. Then, the assay buffer diluted [3H]-Compound 118A* was added at 25 nM×50 μl/well. Following this, the plate was centrifuged at 1000 rpm for 30 secs. The plate was then sealed and agitated at 600 rpm at 22° C. for 5 min, and then incubated at 22° C. for 3 hrs. The incubation was stopped by transferring the binding solution to the pre-treated UniFilter-96 GF/B plate, vacuum filtrated, and then washed four times with ice-cold assay buffer. Following this, the plates were dried at 37° C. for 45 min. The plates were then sealed at the bottom. 40 μl/well of scintillation cocktail was added to the plates. A MicroBeta2 microplate counter was then used to read the plate and analyze the data. For reference and test compounds, the results are expressed as % Inhibition, using the normalization equation: N=100-100×(U−C2)/(C1−C2), where U is the unknown value, C1 is the average of high controls, and C2 is the average value of low controls. The IC50 was determined by fitting percentage of inhibition as a function of compound concentrations with Hill equation using XLfit. Results are expressed as hEBP-DHCR7 Ki (uM) in Table 4. Ki was calculated as described above.

[3] = tested on: zymostenol accumulation in EpiSC-derived OPCs (EBP); assay: GC/MS-based sterol profiling, zymostenol accumulation; assay type: cell-based, mouse; conditions: 8 doses from 0.15 nM to 333 nM, read-out: mZymo GCMS EC50
Experimental: as §1
Sterols were monitored using a modified Folch wash protocol (Hubler et al, 2018, Nature). EpiSC-derived OPCs were plated at 100,000 cells per well in PO— and laminin-coated 96-well plates in N2B27 media without growth factors. After 24 hours, cells were rinsed with saline and plates were frozen. Cholesterol-d7 standard was then added to each well before drying under nitrogen stream and derivatization with 55 μl of bis(trimethylsilyl) trifluoroacetamide. After derivatization, 2 μl were analyzed by gas chromatography/mass spectrometry using an Agilent 5973 Network Mass Selective Detector equipped with a 6890 gas chromatograph system and a HP-5MS capillary column (30 m x 0.25 mm×[…]). Samples were analyzed in full scan mode using electron impact ionization; ion fragment peaks were integrated to calculate sterol abundance, and quantitation was relative to cholesterol-d7. The following ion fragments were used to quantitate each metabolite: cholesterol-d7 (465), FF-Mas (482), cholesterol (368), zymostenol (458), zymosterol (456), Desmosterol (456, 343), 7-dehydrocholesterol (456, 325), lanosterol (393), lathosterol (458), 14-dehydrozymostenol (456, 351). […] All standards were obtained from Avanti Polar Lipids unless otherwise indicated. Calibration curves were generated by injecting varying concentrations of sterol standards and maintaining a fixed amount of cholesterol-D7. For normalized zymostenol accumulation results, the total amount of zymostenol measured after drug treatment was divided by the total amount of zymostenol accumulated after 24 hr treatment with 100 nM positive control reference.

EC50 ([1]; Mus musculus, 72 h) [nM]	Ki [2] [nM]	EC50 ([3]; Mus musculus, 24 h) [nM]	EC50 [1] [nM]	EC50 ([3]; 24 hours) [nM]	SMILES
15	12.7	5.7	–	–	C[C@@H](Cc1ccc(C(F)(F)F)cc1)CN1CC2(CCS(=O)(=O)CC2)C1 (single isomer, unassigned) [232B*]
19.9	19.7	6.1	–	–	CC(C)n1nc(C(F)(F)F)cc1C[C@@H](C)CN1CCC2(C1)CS(=O)(=O)C2 (single isomer, unassigned) [235A*]
45	13.9	9.9	–	–	CC(C)(CN1CC2(CCS(=O)(=O)CC2)C1)Oc1ccc(C(F)(F)F)cc1 [Example 209, 2-(2-Methyl-2-(4-(trifluoromethyl)phenoxy)propyl)-7-thia-2-azaspiro[3.5]nonane 7,7-dioxide]
11	16	3.3	–	–	CC(C)(Cc1ccc(C(F)(F)F)nc1)CN1CCC2(CC1)CS(=O)(=O)C2 [Example 152, 7-(2,2-Dimethyl-3-(6-(trifluoromethyl)pyridin-3-yl)propyl)-2-thia-7-azaspiro[3.5]nonane-2,2-dioxide]
–	10.1	–	4	2.1	CC(Cc1ccc(F)c(F)c1)CN1CCC2(CC1)CS(=O)(=O)C2 (single isomer, unassigned) [212B*, 7-(3-(3,4-Difluorophenyl)-2-methylpropyl)-2-thia-7-azaspiro[3.5]nonane 2,2-dioxide]
42	18.9	8.6	–	–	C[C@H](CN1CCC2(C1)CS(=O)(=O)C2)Oc1ccc(C(F)(F)F)cc1 (single isomer, unassigned) [115A*]
22.8	5.72	3.16	–	–	O=S1(=O)CC2(CCN(CCOc3ccc([C@H]4CC[C@H](C(F)(F)F)CC4)nc3)CC2)C1 [247A*, 7-(2-((6-((trans)-4-(Trifluoromethyl)cyclohexyl)pyridin-3-yl)oxy)ethyl)-2-thia-7-azaspiro[3.5]nonane 2,2-dioxide]
3.2	13.2	1.5	–	–	O=S1(=O)CC2(CCN(CCOc3ccc(Cl)c(F)c3)CC2)C1 [Example 206, 7-(2-(4-Chloro-3-fluorophenoxy)ethyl)-2-thia-7-azaspiro[3.5]nonane 2,2-dioxide]
210	193	35	–	–	C[C@@H](Cc1ccc(C(F)(F)F)nc1)CN1CC2(CCS(=O)(=O)CC2)C1 (single isomer, unassigned) [234B*]
1.6	7.23	0.87	–	–	CC(C)(Cc1ccc(C(F)(F)F)cc1)CN1CCC2(CC1)CS(=O)(=O)C2 [Example 153, 7-(2,2-Dimethyl-3-(4-(trifluoromethyl)phenyl)propyl)-2-thia-7-azaspiro[3.5]nonane-2,2-dioxide]
–	11	–	35	2.4	C[C@@H](Cc1ccc([C@H]2CC[C@](C)(O)CC2)c(Cl)c1)CN1CCC2(C1)CS(=O)(=O)C2 (mixture of isomers) [Compound 123B, 6-((S)-3-(3-Chloro-4-((1r,4S)-4-hydroxy-4-methylcyclohexyl)phenyl)-2-methylpropyl)-2-thia-6-azaspiro[3.4]octane 2,2-dioxide, and 6-((R)-3-(3-chloro-4-((1r,4R)-4-hydroxy-4-methylcyclohexyl)phenyl)-2-methylpropyl)-2-thia-6-azaspiro[3.4]octane 2,2-dioxide]
2.2	9.29	0.88	–	–	O=S1(=O)CC2(CCN(CCOc3ccc(C(F)(F)F)cc3)CC2)C1 [Compound 226, 7-(2-(4-(Trifluoromethyl)phenoxy)ethyl)-2-thia-7-azaspiro[3.5]nonane 2,2-dioxide]
20	8.57	1.3	–	–	CC(Cc1ccc(C2(C)CC2)cc1)CN1CCC2(C1)CS(=O)(=O)C2 (racemic) [Compound 111A, 6-(2-Methyl-3-(4-(1-methylcyclopropyl)phenyl)propyl)-2-thia-6-azaspiro[3.4]octane 2,2-dioxide]
1.4	9.98	0.95	–	–	C[C@@H](Cc1ccc(C(F)(F)F)cc1)CN1CCC2(CC1)CS(=O)(=O)C2 (single isomer, unassigned) [216A*]

SMILES	EC50 ([1]; Mus musculus, 72 h) [nM]	Ki [2] [nM]	EC50 ([3]; Mus musculus, 24 h) [nM]	EC50 [1] [nM]	EC50 ([3]; 24 hours) [nM]
C[C@H](Cc1ccc(C(F)(F)F)cn1)CN1CCC2(C1)CS(=O)(=O)C2 (single isomer, unassigned) [121B*]	260	140	150	–	–
O=S1(=O)CCC2(CC1)CN(CCCc1ccc(C(F)(F)F)nc1)C2 [Compound 223, 2-(3-(6-(Trifluoromethyl)pyridin-3-yl)propyl)-7-thia-2-azaspiro[3.5]nonane 7,7-dioxide]	355	555	120	–	–
